Data as given in patent US20260209248A1, “INHIBITORS OF KIF18A AND USES THEREOF” (Insilico Medicine IP Limited, priority 2022, published 2026).
pIC50: −log10 of the molar value.

target: T1, KIF18A (Homo sapiens, UniProt Q8NI77); assay: KIF18A Assay (ADP Glo luminescence); format: biochemical; details: enzyme pre-incubated 15 min at 25° C., ATP reaction 60 min, 10 pts 1:3 dilution
T1 sequence (Q8NI77 1-898): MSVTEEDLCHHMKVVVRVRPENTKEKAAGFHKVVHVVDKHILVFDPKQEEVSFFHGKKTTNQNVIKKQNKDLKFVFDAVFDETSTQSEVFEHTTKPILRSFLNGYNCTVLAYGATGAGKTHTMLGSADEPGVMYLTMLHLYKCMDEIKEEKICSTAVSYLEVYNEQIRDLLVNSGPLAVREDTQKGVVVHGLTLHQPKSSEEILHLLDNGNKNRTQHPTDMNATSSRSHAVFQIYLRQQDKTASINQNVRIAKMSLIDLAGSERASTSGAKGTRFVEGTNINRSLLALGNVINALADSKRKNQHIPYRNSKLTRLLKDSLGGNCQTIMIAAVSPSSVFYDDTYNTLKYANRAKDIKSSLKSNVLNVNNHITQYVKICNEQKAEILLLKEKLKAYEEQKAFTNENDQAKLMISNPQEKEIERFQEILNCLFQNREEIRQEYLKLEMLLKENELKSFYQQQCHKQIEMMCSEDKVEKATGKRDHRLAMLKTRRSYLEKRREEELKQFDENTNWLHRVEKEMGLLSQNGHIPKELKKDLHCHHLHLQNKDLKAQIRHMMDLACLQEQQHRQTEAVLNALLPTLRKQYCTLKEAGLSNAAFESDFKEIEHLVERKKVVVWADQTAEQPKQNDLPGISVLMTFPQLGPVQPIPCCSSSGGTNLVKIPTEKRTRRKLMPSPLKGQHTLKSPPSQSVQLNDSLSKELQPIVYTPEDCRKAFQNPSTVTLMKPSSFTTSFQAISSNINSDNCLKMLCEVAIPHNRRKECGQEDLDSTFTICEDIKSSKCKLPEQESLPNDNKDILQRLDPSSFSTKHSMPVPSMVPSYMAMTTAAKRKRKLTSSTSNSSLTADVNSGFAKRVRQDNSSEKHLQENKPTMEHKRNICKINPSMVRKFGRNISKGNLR
Protocol: The KIF18A assay was performed as follows:
1.1. Prepared 1× kinase Buffer 1.2. […] 1.3. Data analysis−Calculated IC50 and plot dose-response curve of compounds: • Calculated IC50 by fitting % Inhibition values and log of compound concentrations to nonlinear regression (dose response−variable slope) with GraphPad 6.0.
[formula] • X: log of inhibitor concentration; Y: % Inhibition

`O=C(Nc1ccnc2c1OCC1COCCN21)c1ccc(NS(=O)(=O)CCO)cc1N1CCC2(CC1)CC2` (stereo not drawn) [EX01, 4-((2-hydroxyethyl)sulfonamido)-2-(6-azaspiro[2.5]octan-6-yl)-N-(6a,7,9,10-tetrahydro-6H-[1,4]oxazino[4,3-d]pyrido[3,2-b][1,4]oxazin-4-yl)benzamide] and `O=C(Nc1ccnc2c1OCC1CC(F)(F)CCN21)c1ccc(NS(=O)(=O)CCO)cc1N1CCC2(CC1)CC2` (stereo not drawn) [EX10, N-(8,8-difluoro-6,6a,7,8,9,10-hexahydrodipyrido[3,2-b:1′,2′-d][1,4]oxazin-4-yl)-4-((2-hydroxyethyl)sulfonamido)-2-(6-azaspiro[2.5]octan-6-yl)benzamide] cannot be ordered by pIC50: greater than 7.30 for the first, greater than 7.30 for the second.

`CN1CCCOc2c(NC(=O)c3ccc(NS(=O)(=O)CCO)cc3N3CCC4(CC3)CC4)ccnc21` [EX02, 4-((2-hydroxyethyl)sulfonamido)-N-(5-methyl-2,3,4,5-tetrahydropyrido[3,2-b][1,4]oxazepin-9-yl)-2-(6-azaspiro[2.5]octan-6-yl)benzamide] and `O=C(Nc1ccc2c(n1)N1CCOCC1CO2)c1ccc(NS(=O)(=O)CCO)cc1N1CCC2(CC1)CC2` (stereo not drawn) [EX03, 4-((2-hydroxyethyl)sulfonamido)-2-(6-azaspiro[2.5]octan-6-yl)-N-(6a,7,9,10-tetrahydro-6H-[1,4]oxazino[4,3-d]pyrido[3,2-b][1,4]oxazin-2-yl)benzamide] cannot be ordered by pIC50: greater than 7.30 for the first, greater than 7.30 for the second.

First: O=C(Nc1cccn(CCCC(F)(F)F)c1=O)c1ccc(NS(=O)(=O)CCO)cc1N1CCC2(CC1)CC2 [EX04, 4-((2-hydroxyethyl)sulfonamido)-N-(2-oxo-1-(4,4,4-trifluorobutyl)-1,2-dihydropyridin-3-yl)-2-(6-azaspiro[2.5]octan-6-yl)benzamide]
Second: O=C(Nc1ccc(=O)n(CCCC(F)(F)F)n1)c1ccc(NS(=O)(=O)CCO)cc1N1CCC2(CC1)CC2 [EX08, 4-((2-hydroxyethyl)sulfonamido)-N-(6-oxo-1-(4,4,4-trifluorobutyl)-1,6-dihydropyridazin-3-yl)-2-(6-azaspiro[2.5]octan-6-yl)benzamide]
The pIC50 of the first is lower: 6.30 to 7.30 for the first, greater than 7.30 for the second. The second is the more potent here.

First: O=C(Nc1ccc(=O)n(C2CCOCC2)n1)c1ccc(NS(=O)(=O)CCO)cc1N1CCC2(CC1)CC2 [EX05, 4-((2-hydroxyethyl)sulfonamido)-N-(6-oxo-1-(tetrahydro-2H-pyran-4-yl)-1,6-dihydropyridazin-3-yl)-2-(6-azaspiro[2.5]octan-6-yl)benzamide]
Second: O=C(Nc1ccc(=O)n(C2CCOCC2)c1)c1ccc(NS(=O)(=O)CCO)cc1N1CCC2(CC1)CC2 [EX06, 4-((2-hydroxyethyl)sulfonamido)-N-(6-oxo-1-(tetrahydro-2H-pyran-4-yl)-1,6-dihydropyridin-3-yl)-2-(6-azaspiro[2.5]octan-6-yl)benzamide]
The pIC50 of the first is higher: 6.30 to 7.30 for the first, 4.82 to 6.30 for the second. The first is the more potent here.

`O=C(Nc1ccc2c(n1)N1CCC(F)(F)CC1CO2)c1ccc(NS(=O)(=O)CCO)cc1N1CCC2(CC1)CC2` (stereo not drawn) [EX07, N-(8,8-difluoro-6,6a,7,8,9,10-hexahydrodipyrido[3,2-b:1′,2′-d][1,4]oxazin-2-yl)-4-((2-hydroxyethyl)sulfonamido)-2-(6-azaspiro[2.5]octan-6-yl)benzamide] and `O=C(Nc1ccnc2c1OCC1CC(F)(F)CCN21)c1cc2c(cc1N1CCC3(CC1)CC3)N(S(=O)(=O)CCO)CC2` (stereo not drawn) [EX19, N-(8,8-difluoro-6,6a,7,8,9,10-hexahydrodipyrido[3,2-b:1′,2′-d][1,4]oxazin-4-yl)-1-((2-hydroxyethyl)sulfonyl)-6-(6-azaspiro[2.5]octan-6-yl)indoline-5-carboxamide] cannot be ordered by pIC50: greater than 7.30 for the first, greater than 7.30 for the second.

Compared with `COCCS(=O)(=O)N1CCc2cc(C(=O)Nc3cccc(N4CCOCC4)n3)c(N3CCC4(CC3)CC4)cc21` [EX13, 1-((2-methoxyethyl)sulfonyl)-N-(6-morpholinopyridin-2-yl)-6-(6-azaspiro[2.5]octan-6-yl)indoline-5-carboxamide], `O=C(Nc1cccc(N2CCOCC2)n1)c1cc2c(cc1N1CCC3(CC1)CC3)N(S(=O)(=O)CCO)CC2` [EX14, 1-((2-hydroxyethyl)sulfonyl)-N-(6-morpholinopyridin-2-yl)-6-(6-azaspiro[2.5]octan-6-yl)indoline-5-carboxamide] is higher in pIC50: 4.82 to 6.30 for the first, greater than 7.30 for the second. The second is the more potent here.

First: Cc1cc(NC(=O)c2cc3c(cc2N2CCC4(CC2)CC4)N(S(=O)(=O)CCO)CC3)nc(N2CCC(F)(F)CC2)n1 [EX15, N-(2-(4,4-difluoropiperidin-1-yl)-6-methylpyrimidin-4-yl)-1-((2-hydroxyethyl)sulfonyl)-6-(6-azaspiro[2.5]octan-6-yl)indoline-5-carboxamide]
Second: Cc1cc(NC(=O)c2cc3c(cc2N2CCC4(CC2)CC4)N(S(C)(=O)=O)CC3)nc(N2CCC(F)(F)CC2)n1 [EX20, N-(2-(4,4-difluoropiperidin-1-yl)-6-methylpyrimidin-4-yl)-1-(methylsulfonyl)-6-(6-azaspiro[2.5]octan-6-yl)indoline-5-carboxamide]
The pIC50 of the first is higher: greater than 7.30 for the first, 6.30 to 7.30 for the second. The first is the more potent here.

`O=C(Nc1ccc(=O)n(C2CC(F)(F)C2)n1)c1cc2c(cc1N1CCC3(CC1)CC3)N(S(=O)(=O)CCO)CC2` [EX18, N-(1-(3,3-difluorocyclobutyl)-6-oxo-1,6-dihydropyridazin-3-yl)-1-((2-hydroxyethyl)sulfonyl)-6-(6-azaspiro[2.5]octan-6-yl)indoline-5-carboxamide] and `O=C(Nc1ccc(=O)n(C2CCC(F)(F)CC2)n1)c1cc2c(cc1N1CCC3(CC1)CC3)N(S(=O)(=O)CCO)CC2` [EX21, N-(1-(4,4-difluorocyclohexyl)-6-oxo-1,6-dihydropyridazin-3-yl)-1-((2-hydroxyethyl)sulfonyl)-6-(6-azaspiro[2.5]octan-6-yl)indoline-5-carboxamide] cannot be ordered by pIC50: greater than 7.30 for the first, greater than 7.30 for the second.

First: CC(C)n1nc(NC(=O)c2cc3c(cc2N2CCC4(CC2)CC4)N(S(=O)(=O)CCO)CC3)ccc1=O [EX22, 1-((2-hydroxyethyl)sulfonyl)-N-(1-isopropyl-6-oxo-1,6-dihydropyridazin-3-yl)-6-(6-azaspiro[2.5]octan-6-yl)indoline-5-carboxamide]
Second: Cc1cc(NC(=O)c2cc3c(cc2N2CCC4(CC2)CC4)N(C(=O)CCO)CC3)nc(N2CCC(F)(F)CC2)n1 [EX25, N-(2-(4,4-difluoropiperidin-1-yl)-6-methylpyrimidin-4-yl)-1-(3-hydroxypropanoyl)-6-(6-azaspiro[2.5]octan-6-yl)indoline-5-carboxamide]
The pIC50 of the first is higher: greater than 7.30 for the first, 4.82 to 6.30 for the second. The first is the more potent here.
